Laboratory results reported in patent US20250297135A1, “CERIA AND HYDROXAMIC ACID CMP COMPOSITION” (ENTEGRIS, INC., priority 2024, published 2025).
Like-named read-outs stand apart in the source and are kept apart here.

Legend:
[1] = pH 5.5
Experimental: (§1) To measure the aqueous solubility, a supersaturated solution of each hydroxamic acid compound was prepared in deionized water. The pH was adjusted to 5.5 using nitric acid and the supersaturated solution was stirred overnight. Excess solids were removed via filtration and the hydroxamic acid compound in solution was quantified using ^1H NMR with a t-BuOH standard.

[2] = Aqueous solubility from supersaturated solution, 1H NMR quantification; details: deionized water, pH adjusted to 5.5 using nitric acid, stirred overnight, filtered
Experimental: as §1

Row | Structure (SMILES) | Aqueous Solubility [1] [%] | Aqueous Solubility [2] [%]
1 | O=C(NO)c1ccc(F)cc1 [4FBHA, 4-Fluorobenzohydroxamic acid] | 1.0 | 
2 | Cc1ccccc1C(=O)NO [4MeBHA, methylbenzo hydroxamic acid] |  | 0.5
3 | COc1ccc(CCCCC(=O)NO)cc1 [4pAnisBuHA, 4-(p-anisyl) butyrohydroxamic acid] | 0.5 | 
